Measurements as given in patent US8450301B2, “Piperazine compounds with a herbicidal action” (BASF SE, priority 2006, dated 2013).

How the values were obtained:
Type in all cases: in vivo
Setaria faberi (SETFA) [1] = assay: greenhouse experiment, post-emergence treatment; settings: application rate 3 kg/ha, scale 0 to 100
Text: (§1) The culture containers used were plastic flowerpots containing loamy sand with approximately 3.0% of humus as the substrate. The seeds of the test plants were sown separately for each species.
(§2) For the post-emergence treatment, the test plants were first grown to a height of 3 to 15 cm, depending on the plant habit, and only then treated with the active ingredients which had been suspended or emulsified in water. For this purpose, the test plants were either sown directly and grown in the same containers, or they were first grown separately as seedlings and transplanted into the test containers a few days prior to treatment.
(§3) Depending on the species, the plants were kept at 10-25° C. or 20-35° C. The test period extended over 2 to 4 weeks. During this time, the plants were tended, and their response to the individual treatments was evaluated.
(§4) Evaluation was carried out using a scale from 0 to 100. 100 means no emergence of the plants, or complete destruction of at least the aerial moieties, and 0 means no damage, or normal course of growth. A good herbicidal activity is given at values of at least 70 and a very good herbicidal activity is given at values of at least 85.

SETIT = assay: greenhouse experiment, pre-emergence treatment; settings: application rate 3 kg/ha, scale 0 to 100
Text: as §1
(§5) For the pre-emergence treatment, the active ingredients, which had been suspended or emulsified in water, were applied directly after sowing by means of finely distributing nozzles. The containers were irrigated gently to promote germination and growth and subsequently covered with transparent plastic hoods until the plants had rooted. This cover caused uniform germination of the test plants, unless this has been impaired by the active ingredients.
as §3, §4

[2] = tested on: Echinochloa crus galli (ECHCG); assay: greenhouse experiment, pre-emergence treatment; settings: application rate 3 kg/ha, scale 0 to 100
Text: as §1, §5, §3, §4

Setaria faberi (SETFA) [3] = assay: greenhouse experiment, pre-emergence treatment; settings: application rate 3 kg/ha, scale 0 to 100
Text: as §1, §5, §3, §4

[4] = tested on: Alopecurus myosuroides (ALOMY); assay: greenhouse experiment, post-emergence treatment; settings: application rate 3 kg/ha, scale 0 to 100
Text: as §1, §2, §3, §4

Avena fatua (AVEFA) = assay: greenhouse experiment, post-emergence treatment; settings: application rate 3 kg/ha, scale 0 to 100
Text: as §1, §2, §3, §4

[5] = tested on: Apera spica-venti (APESV); assay: greenhouse experiment, pre-emergence treatment; settings: application rate 0.5 kg/ha, scale 0 to 100
Text: as §1, §5, §3, §4

[6] = tested on: Amaranthus retroflexus (AMARE); assay: greenhouse experiment, pre-emergence treatment; settings: application rate 0.5 kg/ha, scale 0 to 100
Text: as §1, §5, §3, §4

Row | SMILES | herbicidal post-emergence activity against SETFA (Setaria faberi (SETFA) [1]) | herbicidal pre-emergence activity against SETIT (SETIT) | herbicidal pre-emergence activity against ECHCG [2] | further results
1 | CC(=O)OC(c1ccccc1[N+](=O)[O-])C1C(=O)N(C)C(Cc2ccccc2)C(=O)N1C (centres unmarked) [A.2.251] | good to very good | – | – | –
2 | CC(Oc1ccc(CC2C(=O)N(C)C(Cc3ccccc3)C(=O)N2C)c([N+](=O)[O-])c1)C(=O)O (centres unmarked) [A.1.13] | – | good to very good | – | –
3 | C=Cc1ccccc1CC1C(=O)N(C)C(Cc2ccccc2)C(=O)N1C (centres unmarked) [A.2.274] | good to very good | – | good to very good | –
4 | CN1C(=O)C(C(OS(C)(=O)=O)c2ccccc2[N+](=O)[O-])N(C)C(=O)C1Cc1ccccc1 (single isomer, unassigned) [A.2.267] | good to very good | good to very good | good to very good | –
5 | C#Cc1ccccc1CC1C(=O)N(C)C(Cc2ccccc2)C(=O)N1C (centres unmarked) [A.2.135] | good to very good | good to very good | good to very good | –
6 | CN1C(=O)C(C(O[Si](C)(C)C)c2ccccc2[N+](=O)[O-])N(C)C(=O)C1Cc1ccccc1 (single isomer, unassigned) [A.2.271] | – | good to very good | – | –
7 | CC(C)=CCN1C(=O)C(Cc2ccccc2[N+](=O)[O-])N(C)C(=O)C1Cc1ccccc1 (single isomer, unassigned) [A.2.64] | good to very good | – | good to very good | –
8 | CC(C)OC(=O)CN1C(=O)C(Cc2ccccc2[N+](=O)[O-])N(C)C(=O)C1Cc1ccccc1 (single isomer, unassigned) [A.2.65] | good to very good | – | – | –
9 | Cc1cc(-c2ccccc2CC2C(=O)N(C)C(Cc3ccccc3)C(=O)N2C)on1 (centres unmarked) [A.2.273] | good to very good | good to very good | good to very good | –
10 | CN1C(=O)C(Cc2ccccc2C#N)N(C)C(=O)C1Cc1ccccc1 (centres unmarked) [A.2.81] | – | – | – | herbicidal pre-emergence activity against SETFA (Setaria faberi (SETFA) [3]): very good (a very good herbicidal activity is given at values of at least 85)
11 | CN1C(=O)C(C(OS(C)(=O)=O)c2ccccc2[N+](=O)[O-])N(C)C(=O)C1Cc1ccccc1 (single isomer, unassigned) [A.2.265] | good to very good | good to very good | good to very good | –
12 | CN1C(=O)C(Cc2ccccc2NS(C)(=O)=O)N(C)C(=O)C1Cc1ccccc1 (centres unmarked) [A.2.105] | – | – | good to very good | herbicidal post-emergence activity against ALOMY [4]: very good (a very good herbicidal activity is given at values of at least 85); herbicidal post-emergence activity against AVEFA (Avena fatua (AVEFA)): very good (a very good herbicidal activity is given at values of at least 85)
13 | CN1C(=O)C(C(OCc2ccccc2)c2ccccc2[N+](=O)[O-])N(C)C(=O)C1Cc1ccccc1 (centres unmarked) [A.2.255] | good to very good | – | – | –
14 | CCS(=O)(=O)OC(c1ccccc1[N+](=O)[O-])C1C(=O)N(C)C(Cc2ccccc2)C(=O)N1C (centres unmarked) [A.2.275] | good to very good | – | good to very good | –
15 | CN1C(=O)C(Cc2c(Br)cccc2[N+](=O)[O-])N(C)C(=O)C1Cc1ccccc1 (centres unmarked) [A.2.133] | good to very good | – | good to very good | –
16 | COS(=O)(=O)C(c1ccccc1[N+](=O)[O-])C1C(=O)N(C)C(Cc2cccs2)C(=O)N1C (centres unmarked) [A.5.17, methyl [1,4-dimethyl-3,6-dioxo-5-(thiophen-2-ylmethyl)piperazin-2-yl]-(2-nitrophenyl) methanesulfonate] | – | – | – | herbicidal pre-emergence activity against APESV [5]: good (A good herbicidal activity is given at values of at least 70); herbicidal pre-emergence activity against AMARE [6]: very good (a very good herbicidal activity is given at values of at least 85)
17 | COS(=O)(=O)C(c1cccnc1Br)C1C(=O)N(C)C(Cc2ccccc2)C(=O)N1C (centres unmarked) [A.5.16, methyl (5-benzyl-1,4-dimethyl-3,6-dioxopiperazin-2-yl)-(2-bromopyridin-3-yl)methanesulfonate] | – | good to very good | – | –
